Results reported in PMC11311998, “AR71, Histamine H3 Receptor Ligand—In Vitro and In Vivo Evaluation (Anti-Inflammatory Activity, Metabolic Stability, Toxicity, and Analgesic Action)” (International Journal of Molecular Sciences, 2024).

Key:
SH-SY5Y cells [1] = assay type: cell-based, human; conditions: without rotenone
Method: To test neuroprotective activity, SH-SY5Y cells were pre-treated for 1 h with various concentrations of AR71, after which rotenone (6.25 μM) was added and the cells were cultured for another 24 h. […] Co-treatment with AR71 protected cells from the toxic effect of rotenone, resulting in LDH leakage ranging from 10 to 22% only.
The protective effect of AR71 against rotenone-induced toxicity in SH-SY5Y cells was assessed by measuring LDH release. SH-SY5Y cells (6 × 10^3 cells/100 μL/well) were seeded in black 96-well plates Nunclon^TM Delta Surface no. 137101 (ThermoFischer Scientific, Waltham, MA, USA) and cultured overnight. The next day, the medium was removed and replaced with a fresh one with an increasing concentration of AR71 (0.0975–50 μM). After 1 h of compound pre-treatment, the neurotoxin rotenone (6.25 μM) was added, and the cells were cultured for another 24 h. For the negative and positive controls, cells were treated with 0.1% DMSO and 6.25 μM of rotenone alone, respectively. The cells treated with the compound alone were used to compare the effect with those co-treated with rotenone. After 24 h, the level of LDH leakage was measured by the CytoTox-ONE™ Homogeneous Membrane Integrity Assay (Promega, Madison, WI, USA) following the manufacturer’s protocol. Briefly, 100 μL of CytoTox-ONE™ reagent (Promega, Madison, WI, USA) was added to each well, and the cells were incubated for 10 min at room temperature protected from light. The fluorescence was measured using the multimode plate reader Tecan Spark (Tecan, Männedorf, Switzerland) with an excitation wavelength of 560 nm and an emission wavelength of 590 nm.

SH-SY5Y cells [2] = assay: mitochondrial membrane potential (JC-10); assay type: cell-based, human; conditions: 0.78 μM
Method: Neurotoxin-like rotenone induces oxidative stress inside cells that might influence mitochondrial membrane potential (MMP). Maintaining unaffected MMP is essential for neuroprotection. In our study, we tested the effect of AR71 on MMP in the presence and absence of rotenone.
Next, the effect of AR71 (0.78 μM) when co-treated with rotenone was tested; 1 μM carbonyl cyanide m-chlorophenylhydrazone (CCCP) was used as a positive control.
The MMP was measured by a commercially available kit (Sigma Aldrich, MAK159, for live cells) that utilises a cationic, lipophilic dye JC-10. It allows for ratiometric analysis of mitochondrial membrane potential, where a shift from orange (λEX/λEM: 540 nm/590 nm) to green fluorescence (λEX/λEM: 490 nm/525 nm) is indicative of compromised mitochondria. For this assay, the SH-SY5Y cells (1 × 10^4 cells/well) were seeded in a black-sided clear bottom 96-well plate (Thermo Scientific Nunclon^TM Delta Surface no. 137101, Denmark) in a complete culture medium. First, to choose the optimal concentration of rotenone in this assay, a dose–response effect of rotenone (0.05, 0.5, 5, 50 μM) was studied. Next, the cells were pre-treated with AR71 (0.78 μM) for 1 h before rotenone stimulation (50 μM) for another 3 h. […] The positive control was carbonyl cyanide m-chlorophenylhydrazone (CCCP; 1 μM)—uncoupling agent on the proton gradient. After incubation, 50 μL/well of the JC-10 dye loading solution was added to each well with cells. The plate was incubated for 45 min in the incubator. Then, 50 μL/well of Assay Buffer B was added to each well, and the fluorescence was monitored immediately. The red/green fluorescence intensity ratio was used to calculate the results.

CCI-exposed mice [3] = assay: von Frey test in CCI neuropathic pain model; assay type: in vivo, mouse
Method: (§1) The effects of a single intraperitoneal (i.p.) injection of AR71 at doses of 5, 10, and 20 mg/kg on mechanical (von Frey test) and thermal (cold plate and tail flick tests) stimulus were evaluated on day 14 following sciatic nerve injury (Figure 15). There were seven to eight animals per group. All these tests were performed in three time series after the administration of the compound. In the case of the von Frey test—after 30, 90, and 180 min; the cold plate test—after 35, 95, and 185 min; and the tail flick test—after 40, 100, and 190 min.
The mice were randomly divided into four experimental groups. One group received a vehicle treatment (10% DMSO/10%(2-Hydroxypropyl)-β-cyclodextrin/water for injection, i.p.), while the other three groups were administered with AR71 at doses of 5, 10, or 20 mg/kg of body weight (b.w.), i.p. Baseline measurements for all tests were conducted before the compounds were injected, and the results are presented as percentages of the maximal possible effect (% MPE). […] All data from behavioural tests were analysed using a one-way ANOVA with Bonferroni’s multiple comparison post hoc test.
The model of chronic constriction injury (CCI) to the sciatic nerve was established according to Bennett and Xie. The surgical method was performed under isoflurate anaesthesia (2% isoflurane in 100% oxygen with a flow of 1.5 L/min). Below the right hipbone, a small incision was performed, and three ligatures (4/0 silk) around the sciatic nerve were made (with 1 mm spacing) until a brief twitch in the respective hind limb was observed. The CCI procedure leads to hypersensitivity to mechanical and thermal stimuli. Behavioural tests were performed on day 14 after the injury. AR71 was dissolved in 10% DMSO/10% (2-Hydroxypropyl)-β-cyclodextrin/water for injection and was given i.p. at doses of 5, 10, and 20 mg/kg of body weight (injection volume 10 mL/kg of bw). The control group received the vehicle (10% DMSO/10% (2-Hydroxypropyl)-β-cyclodextrin/water for injection).
Behavioural experiments were performed between 8:00 a.m. and 2:00 p.m. […]

CCI-exposed mice [4] = assay: cold plate test in CCI neuropathic pain model; assay type: in vivo, mouse
Method: as §1
The mice were randomly divided into four experimental groups. […] All data from behavioural tests were analysed using a one-way ANOVA with Bonferroni’s multiple comparison post hoc test. […]
The cold plate test (performed by the Cold/Hot Plate Analgesia Meter, Columbus Instruments, N. Hague Ave, Columbus, OH, USA) was used to assess sensitivity to noxious thermal stimuli. […] The mice were placed on a cold plate, and the time it took to lift the injured paw was recorded.

COc1cc(/C=C/C(=O)c2ccc(OCCCN3CCCCC3)cc2)cc(OC)c1OC [AR71, (E)-3-(3,4,5-trimethoxyphenyl)-1-(4-(3-(piperidin-1-yl)propoxy)phenyl)prop-2-en-1-one]
LDH leakage compared with control cells (SH-SY5Y cells [1]; 50 μM): ~60% | effect on cell membrane integrity (LDH) (SH-SY5Y cells [1]; 0.0975–25 μM): did not disturb the cell membrane | effect on MMP of compound alone (SH-SY5Y cells [2]): did not affect mitochondrial membrane potential | minimisation of loss of MMP compared with rotenone-treated cells (SH-SY5Y cells [2]; 1 h pre-treatment, then rotenone 50 μM for 3 h): 20% | effect in von Frey test vs vehicle (CCI-exposed mice [3]; 10 mg/kg i.p., 30 min after injection, p < 0.05): significant pain-relieving effects | effect in von Frey test vs vehicle (CCI-exposed mice [3]; 20 mg/kg i.p., 90 and 180 min after injection (p < 0.001 and p < 0.01), lower doses not effective): increased withdrawal thresholds | effect in von Frey test vs vehicle (CCI-exposed mice [3]; 20 mg/kg i.p., 30 min after injection, p < 0.001): significant pain-relieving effects | effect in cold plate test vs control (CCI-exposed mice [4]; 5, 10 and 20 mg/kg i.p., 35 min (5 mg/kg p < 0.05; 10 and 20 mg/kg p < 0.001)): Analgesic effects | effect in cold plate test vs control (CCI-exposed mice [4]; 95 and 185 min after injection, 10 and 20 mg/kg i.p.): only the two higher doses were effective
